Laboratory results published in patent US20250074920A1, “MACROCYCLIC COMPOUNDS AND USE AS KINASE INHIBITORS” (BLOSSOMHILL THERAPEUTICS, INC., priority 2022, published 2025).

Tests used:
Test in all cases: KINOMEscan kinase binding assay
[1] = tested on: ABL1(Q252H)-nonphosphorylated; settings: at 1 μM
How it was run: (§1)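 We measured how much kinase stayed bound to an immobilized small-molecule ligand when test compound was present. Binding ran at room temperature for 1 h, and the kinase eluted from the beads was counted by qPCR. Lower % Ctrl indicated tighter compound binding.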

FLT3-autoinhibited = settings: at 1 μM
How it was run: as §1

LYN = settings: at 1 μM
How it was run: as §1

ERBB2 = settings: at 1 μM
How it was run: as §1

CSK = settings: at 1 μM
How it was run: as §1

FGFR3 = settings: at 1 μM
How it was run: as §1

SRMS = settings: at 1 μM
How it was run: as §1

YES = settings: at 1 μM
How it was run: as §1

TXK = settings: at 1 μM
How it was run: as §1

FGFR3(G697C) = settings: at 1 μM
How it was run: as §1

TNK1 = settings: at 1 μM
How it was run: as §1

TIE2 = settings: at 1 μM
How it was run: as §1

KIT(V559D, V654A) = settings: at 1 μM
How it was run: as §1

EGFR(G719C) = settings: at 1 μM
How it was run: as §1

[2] = tested on: JAK3(JH1domain-catalytic); settings: for % Ctrl: JAK3(JH1domain-catalytic), at 1 μM; for Kd: read-out: JAK3(JH1 domain-catalytic) Kd
How it was run: (§2)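 Dissociation constants came from the amount of kinase captured on the solid support across a test compound concentration series. Captured kinase, T7 phage-fused or HEK-293-made and DNA-tagged, was read by qPCR after a 1 h room-temperature binding step.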

TRKB = settings: at 1 μM
How it was run: as §1

PDGFRA = settings: at 1 μM
How it was run: as §1

[3] = tested on: ABL1(Y253F)-phosphorylated; settings: at 1 μM
How it was run: as §1

EPHA8 = settings: at 1 μM
How it was run: as §1

FLT4 = settings: at 1 μM
How it was run: as §1

FGR = settings: at 1 μM
How it was run: as §1

[4] = tested on: ABL1(H396P)-phosphorylated; settings: at 1 μM
How it was run: as §1

KIT-autoinhibited = settings: at 1 μM
How it was run: as §1

RET(V804M) = settings: at 1 μM
How it was run: as §1

ROS1 = settings: at 1 μM
How it was run: as §1

LCK = settings: at 1 μM
How it was run: as §1

EPHA5 = settings: at 1 μM
How it was run: (§3)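 Competition binding format: a test compound at a single concentration displaces phage-tagged or DNA-tagged kinase from an immobilized affinity ligand. After washing, kinase is released with 0.5 μM free ligand (30 min, room temperature) and measured by qPCR. Data are given as % Ctrl.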

TYRO3 = settings: at 1 μM
How it was run: as §1

[5] = tested on: TYK2(JH1domain-catalytic); settings: for % Ctrl: TYK2(JH1domain-catalytic), at 1 μM; for Kd: read-out: TYK2(JH1 domain-catalytic) Kd
How it was run: as §2

KIT(V559D) = settings: at 1 μM
How it was run: as §1

EPHA3 = settings: at 1 μM
How it was run: as §3

RET = settings: at 1 μM
How it was run: as §1

ABL1-nonphosphorylated = settings: at 1 μM
How it was run: as §1

MERTK = settings: at 1 μM
How it was run: as §1

EPHA1 = settings: at 1 μM
How it was run: as §3

FYN = settings: at 1 μM
How it was run: as §1

FLT3(D835Y) = settings: at 1 μM
How it was run: as §1

SYK = settings: at 1 μM
How it was run: as §1

EGFR(E746-A750del) = settings: at 1 μM
How it was run: as §1

PDGFRB = settings: at 1 μM
How it was run: as §1

Structure (SMILES): Cc1cc2c([nH]1)/C=C1\C(=O)Nc3ccc(cc31)-c1c(nn(C)c1C)OCCCN(C)C2=O [Cpd. 1, [3a(4)Z]-6,9,15,16-tetramethyl-9,10,11,12-tetrahydro-15H-1,17-(ethanediylidene)pyrazolo[4,3-n]dipyrrolo[3,2-g:3′,4′-j][1,5]oxazacyclopentadecine-3,8(2H,5H)-dione]
- % Ctrl [1]: 87%
- % Ctrl (FLT3-autoinhibited): 92%
- % Ctrl (LYN): 100%
- % Ctrl (ERBB2): 98%
- % Ctrl (CSK): 97%
- % Ctrl (FGFR3): 96%
- % Ctrl (SRMS): 93%
- % Ctrl (YES): 100%
- % Ctrl (TXK): 100%
- % Ctrl (FGFR3(G697C)): 100%
- % Ctrl (TNK1): 100%
- % Ctrl (TIE2): 95%
- % Ctrl (KIT(V559D, V654A)): 100%
- % Ctrl (EGFR(G719C)): 81%
- % Ctrl [2]: 81%
- Kd [2]: > 10 µM
- % Ctrl (TRKB): 87%
- % Ctrl (PDGFRA): 87%
- % Ctrl [3]: 92%
- % Ctrl (EPHA8): 100%
- % Ctrl (FLT4): 94%
- % Ctrl (FGR): 91%
- % Ctrl [4]: 96%
- % Ctrl (KIT-autoinhibited): 81%
- % Ctrl (RET(V804M)): 100%
- % Ctrl (ROS1): 91%
- % Ctrl (LCK): 95%
- % Ctrl (EPHA5): 93%
- % Ctrl (TYRO3): 100%
- % Ctrl [5]: 31%
- Kd [5]: > 10 µM
- % Ctrl (KIT(V559D)): 91%
- % Ctrl (EPHA3): 86%
- % Ctrl (RET): 94%
- % Ctrl (ABL1-nonphosphorylated): 87%
- % Ctrl (MERTK): 78%
- % Ctrl (EPHA1): 100%
- % Ctrl (FYN): 91%
- % Ctrl (FLT3(D835Y)): 97%
- % Ctrl (SYK): 98%
- % Ctrl (EGFR(E746-A750del)): 95%
- % Ctrl (PDGFRB): 100%

Structure (SMILES): Cc1cc2c([nH]1)/C=C1\C(=O)Nc3ccc(cc31)-c1c(nn(C)c1C)COCCN(C)C2=O [Cpd. 2, [3a(4)Z]-6,9,15,16-tetramethyl-10,11,13,15-tetrahydro-2H-1,17-(ethanediylidene)pyrazolo[4,3-m]dipyrrolo[3,2-f:3′,4′-i][1,4]oxazacyclopentadecine-3,8(5H,9H)-dione]
- % Ctrl [1]: 57%
- % Ctrl (FLT3-autoinhibited): 83%
- % Ctrl (LYN): 74%
- % Ctrl (ERBB2): 100%
- % Ctrl (CSK): 100%
- % Ctrl (FGFR3): 88%
- % Ctrl (SRMS): 90%
- % Ctrl (YES): 100%
- % Ctrl (TXK): 100%
- % Ctrl (FGFR3(G697C)): 93%
- % Ctrl (TNK1): 92%
- % Ctrl (TIE2): 63%
- % Ctrl (KIT(V559D, V654A)): 92%
- % Ctrl (EGFR(G719C)): 80%
- % Ctrl [2]: 49%
- Kd [2]: 0.51 µM
- % Ctrl (TRKB): 12%
- % Ctrl (PDGFRA): 73%
- % Ctrl [3]: 60%
- % Ctrl (EPHA8): 92%
- % Ctrl (FLT4): 19%
- % Ctrl (FGR): 100%
- % Ctrl [4]: 64%
- % Ctrl (KIT-autoinhibited): 100%
- % Ctrl (RET(V804M)): 77%
- % Ctrl (ROS1): 97%
- % Ctrl (LCK): 100%
- % Ctrl (EPHA5): 99%
- % Ctrl (TYRO3): 100%
- % Ctrl [5]: 100%
- Kd [5]: > 10 µM
- % Ctrl (KIT(V559D)): 98%
- % Ctrl (EPHA3): 99%
- % Ctrl (RET): 90%
- % Ctrl (ABL1-nonphosphorylated): 55%
- % Ctrl (MERTK): 100%
- % Ctrl (EPHA1): 100%
- % Ctrl (FYN): 100%
- % Ctrl (FLT3(D835Y)): 36%
- % Ctrl (SYK): 100%
- % Ctrl (EGFR(E746-A750del)): 100%
- % Ctrl (PDGFRB): 79%

Structure (SMILES): Cc1cc2c([nH]1)/C=C1\C(=O)Nc3c(Cl)cc(cc31)-c1cn(C)nc1COC[C@@H](C)NC2=O [Cpd. 3, [3a(4)Z,10R]-20-chloro-6,10,15-trimethyl-10,11,13,15-tetrahydro-2H-1,17-(ethanediylidene)pyrazolo[4,3-m]dipyrrolo[3,2-f:3′,4′-i][1,4]oxazacyclopentadecine-3,8(5H,9H)-dione]
- % Ctrl [1]: 92%
- % Ctrl (FLT3-autoinhibited): 93%
- % Ctrl (LYN): 90%
- % Ctrl (ERBB2): 100%
- % Ctrl (CSK): 94%
- % Ctrl (FGFR3): 89%
- % Ctrl (SRMS): 69%
- % Ctrl (YES): 99%
- % Ctrl (TXK): 91%
- % Ctrl (FGFR3(G697C)): 89%
- % Ctrl (TNK1): 94%
- % Ctrl (TIE2): 97%
- % Ctrl (KIT(V559D, V654A)): 100%
- % Ctrl (EGFR(G719C)): 100%
- % Ctrl [2]: 70%
- Kd [2]: 7.7 µM
- % Ctrl (TRKB): 100%
- % Ctrl (PDGFRA): 92%
- % Ctrl [3]: 91%
- % Ctrl (EPHA8): 90%
- % Ctrl (FLT4): 100%
- % Ctrl (FGR): 98%
- % Ctrl [4]: 100%
- % Ctrl (KIT-autoinhibited): 87%
- % Ctrl (RET(V804M)): 100%
- % Ctrl (ROS1): 62%
- % Ctrl (LCK): 87%
- % Ctrl (EPHA5): 100%
- % Ctrl (TYRO3): 94%
- % Ctrl [5]: 71%
- Kd [5]: > 10 µM
- % Ctrl (KIT(V559D)): 100%
- % Ctrl (EPHA3): 75%
- % Ctrl (RET): 96%
- % Ctrl (ABL1-nonphosphorylated): 92%
- % Ctrl (MERTK): 98%
- % Ctrl (EPHA1): 85%
- % Ctrl (FYN): 100%
- % Ctrl (FLT3(D835Y)): 81%
- % Ctrl (SYK): 68%
- % Ctrl (EGFR(E746-A750del)): 98%
- % Ctrl (PDGFRB): 100%

Structure (SMILES): C[C@@H]1COCc2nn(C)cc2-c2cc(Cl)c3c(c2)/C(=C/c2[nH]ccc2C(=O)N1)C(=O)N3 [Cpd. 4, [3a(4)Z,10R]-20-chloro-10,15-dimethyl-10,11,13,15-tetrahydro-2H-1,17-(ethanediylidene)pyrazolo[4,3-m]dipyrrolo[3,2-f:3′,4′-i][1,4]oxazacyclopentadecine-3,8(5H,9H)-dione]
- % Ctrl [1]: 86%
- % Ctrl (FLT3-autoinhibited): 93%
- % Ctrl (LYN): 87%
- % Ctrl (ERBB2): 100%
- % Ctrl (CSK): 100%
- % Ctrl (FGFR3): 87%
- % Ctrl (SRMS): 68%
- % Ctrl (YES): 95%
- % Ctrl (TXK): 78%
- % Ctrl (FGFR3(G697C)): 79%
- % Ctrl (TNK1): 94%
- % Ctrl (TIE2): 91%
- % Ctrl (KIT(V559D, V654A)): 99%
- % Ctrl (EGFR(G719C)): 93%
- % Ctrl [2]: 12%
- Kd [2]: 0.059 µM
- % Ctrl (TRKB): 100%
- % Ctrl (PDGFRA): 96%
- % Ctrl [3]: 79%
- % Ctrl (EPHA8): 82%
- % Ctrl (FLT4): 100%
- % Ctrl (FGR): 100%
- % Ctrl [4]: 96%
- % Ctrl (KIT-autoinhibited): 82%
- % Ctrl (RET(V804M)): 90%
- % Ctrl (ROS1): 68%
- % Ctrl (LCK): 88%
- % Ctrl (EPHA5): 100%
- % Ctrl (TYRO3): 97%
- % Ctrl [5]: 48%
- Kd [5]: 1.5 µM
- % Ctrl (KIT(V559D)): 100%
- % Ctrl (EPHA3): 83%
- % Ctrl (RET): 100%
- % Ctrl (ABL1-nonphosphorylated): 84%
- % Ctrl (MERTK): 48%
- % Ctrl (EPHA1): 71%
- % Ctrl (FYN): 93%
- % Ctrl (FLT3(D835Y)): 96%
- % Ctrl (SYK): 64%
- % Ctrl (EGFR(E746-A750del)): 96%
- % Ctrl (PDGFRB): 100%
